Data on 44 molecules can be found in publication PMC8041284, “Tunable Methacrylamides for Covalent Ligand Directed Release Chemistry” (Journal of the American Chemical Society, 2021).

Where two headings read alike, the source gives them in different places. *1 amine or outer side, *2 acyl side, *3 side chain or, on linkers, in order; H or OH if unused. Where a SMILES comes first, the peptide text is derived from it. Bridges are numbered along the chain shown (N, C = ends). [ ]: non-standard residue; d: D form. The star is where a group is joined. Orn(4R-OH,5R-OH) = O=C([C@H](C[C@@H](O)[C@@H](O)N[*:3])N[*:1])[*:2]; Tetradecanoyl(10R,12S-Me2) = CC[C@H](C)C[C@H](C)CCCCCCCCC(=O)*; hTyr(3S-OH,4S-OH) = N[C@H](C(=O)O)[C@H](O)[C@@H](O)c1ccc(O)cc1; Gln(3R-OH) = NC(=O)C[C@@H](O)[C@H](N)C(=O)O; Pro(3S-OH) = O=C(O)[C@H]1NCC[C@@H]1O; Hyp = O=C(O)[C@@H]1C[C@@H](O)CN1

This assay addresses BTK (Homo sapiens, UniProt Q06187). Put plainly: biochemical.
[1] abbreviates: read-out: BTK inhibition (%), 0.75 uM BTK, […] probe 3l, 15 min preincubation.

Sequence of BTK (Q06187 402-655 limits assumed): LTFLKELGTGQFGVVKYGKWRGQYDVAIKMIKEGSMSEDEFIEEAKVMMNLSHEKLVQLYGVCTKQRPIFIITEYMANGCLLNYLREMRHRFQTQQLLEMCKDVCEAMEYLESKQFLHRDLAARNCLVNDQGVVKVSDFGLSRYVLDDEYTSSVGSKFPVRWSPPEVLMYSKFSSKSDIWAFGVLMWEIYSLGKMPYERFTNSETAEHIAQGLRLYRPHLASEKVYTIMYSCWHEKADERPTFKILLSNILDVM

Regarding `C[C@@H]1CC[C@]2(C(=O)O[C@@H]3O[C@H](CO)[C@@H](O)[C@H](O)[C@H]3O)CC[C@]3(C)C(=CC[C@@H]4[C@@]5(C)CC[C@H](O[C@@H]6OC[C@H](O)[C@H](O)[C@H]6O)C(C)(C)[C@@H]5CC[C@]43C)[C@@H]2[C@]1(C)O` [PCM-0216435], the inhibition at 10 µM under setting [1] turned out to be 7.7%.
Regarding `C[C@@H]1CC[C@]2(C(=O)O)CC[C@]3(C)C(=CC[C@@H]4[C@@]5(C)CC[C@H](O[C@@H]6OC[C@H](O)[C@H](O)[C@H]6O)C(C)(C)[C@@H]5CC[C@]43C)[C@@H]2[C@]1(C)O` [PCM-0216436], the inhibition at 10 µM under setting [1] is 14.7%.
On the same count and under the same terms, as for `COC(=O)c1c2c(c3ccccc3c1O)OC(C)(C)C=C2` [PCM-0216437], the figure is -27%.
For the molecule `COc1ccc(/C=C/c2cc(O)cc(O)c2)cc1O` [PCM-0216438], the inhibition at 10 µM under setting [1] amounted to 14.7%.
As for `C/C1=C\CC[C@H](C)C(=O)C[C@@H](C(C)C)C(=O)C1` [PCM-0216439], the inhibition at 10 µM under setting [1] was -3.9%.
As to `COc1ccc([C@@H]2CC(=O)c3c(O)cc(O[C@@H]4O[C@H](CO)[C@@H](O)[C@H](O)[C@H]4O[C@@H]4O[C@@H](C)[C@H](O)[C@@H](O)[C@H]4O)cc3O2)cc1` [PCM-0216440], under setting [1], the inhibition at 10 µM was found to be 2.3%.
On the same count and under the same terms, under `O=C1C=C2C=C[C@@H](O)[C@H](O)[C@H]2O1` [PCM-0216441] stands 25.5%.
`C[C@@]12C[C@@H](c3ccoc3)OC(=O)[C@@H]1CC[C@]1(C)[C@H]2[C@@H]2C=C[C@@]1(O)C(=O)O2` [PCM-0216442]: under “read-out: BTK inhibition (%)”, the inhibition at 10 µM came out at 0%.
For `COc1cc2c(cc1O)C[C@H]1c3cc(O)c(OC)cc3CC[N+]1(C)C2` (some centres unmarked) [PCM-0216444], the inhibition at 10 µM under setting [1] was 2.3%.
The same measure, in the same setting: under `COc1cc2c(cc1O)C[C@H]1c3cc(O)c(OC)cc3CC[N@@+]1(C)C2` [PCM-0216444] stands -1.5%.
Turning to `Cc1cc(=O)c2c(O)c3c(cc2o1)OC(C)(C)[C@@H](O[C@@H]1O[C@H](CO)[C@@H](O)[C@H](O)[C@H]1O)C3` [PCM-0216445], the inhibition at 10 µM under setting [1] was -30.1%.
Turning to `C[C@@H]1O[C@@H](O[C@H]2[C@H](O[C@H]3CC[C@@]4(C)[C@@H](CC[C@]5(C)[C@@H]4CC=C4[C@@H]6CC(C)(C)CC[C@]6(C(=O)O[C@@H]6O[C@H](CO[C@@H]7O[C@H](CO)[C@@H](O)[C@H](O)[C@H]7O)[C@@H](O)[C@H](O)[C@H]6O)CC[C@]45C)[C@]3(C)CO)OC[C@H](O)[C@@H]2O)[C@H](O)[C@H](O[C@@H]2O[C@H](CO)[C@@H](O)[C@H](O)[C@H]2O)[C@H]1O` [PCM-0216447], the inhibition at 10 µM under setting [1] is -21.6%.
Same read-out and setting: under `C=C1[C@H](OC(=O)/C=C(\C)CC)C[C@@H](C(C)C)[C@@H]2[C@@H]([C@@H](C)OC(C)=O)C(=O)C[C@@H]12` [PCM-0216448] stands -9.3%.
On to `CO[C@H]1C[C@H](O[C@H]2CC[C@]3(C)[C@H]4CC[C@]5(C)[C@@H](C6=CC(=O)OC6)CC[C@]5(O)[C@@H]4CC[C@]3(O)C2)O[C@H](C)[C@H]1O[C@@H]1O[C@H](CO)[C@@H](O)[C@H](O)[C@H]1O` [PCM-0216449], for which the inhibition at 10 µM (read-out: BTK inhibition (%)) was 11.6%.
As for `COc1ccc2c(c1OC)CC1c3c(cc4c(c3-2)OCO4)CCN1C` (centres unmarked) [PCM-0216450], under setting [1], the inhibition at 10 µM was 0.8%.
As to `C[C@@H]1CC[C@@]2(OC1)O[C@H]1C[C@H]3[C@@H]4CC=C5C[C@@H](O)C[C@@H](O)[C@]5(C)[C@H]4CC[C@]3(C)[C@H]1[C@@H]2C` [PCM-0216451], the inhibition at 10 µM under setting [1] was -20.8%.
Same read-out and setting: under `COc1cc2c[n+](C)c3c4cc5c(cc4ccc3c2cc1OC)OCO5` [PCM-0216452] stands 27.8%; under `O=c1cc(-c2ccccc2)oc2cc(O[C@@H]3O[C@H](CO[C@@H]4O[C@H](CO)[C@@H](O)[C@H](O)[C@H]4O)[C@@H](O)[C@H](O)[C@H]3O)c(O)c(O)c12` [PCM-0216453], 30.9%; under `O=c1cc(-c2ccc(O)cc2)oc2c([C@@H]3O[C@H](CO)[C@@H](O)[C@H](O)[C@H]3O)c(O)cc(O)c12` [PCM-0216454], 26.3%.
Same read-out and setting: as for `COc1cc2oc(=O)ccc2c(OC)c1C[C@@H](O)C(C)(C)O` [PCM-0216455], the figure is -13.1%; as for `O=C[C@H](O)[C@@H](O)[C@H](O[C@H]1O[C@H](CO)[C@@H](O[C@H]2O[C@H](CO)[C@@H](O[C@H]3O[C@H](CO)[C@@H](O)[C@H](O)[C@H]3O)[C@H](O)[C@H]2O)[C@H](O)[C@H]1O)[C@H](O)CO` [PCM-0216456], 0.8%; as for `COc1c(O)c(C)cc2c1C(=O)c1c(O)cccc1C2=O` [PCM-0216457], 64.1%.
As for `C[C@@H]1O[C@@H](O[C@H]2[C@H](O[C@H]3C[C@]4(C)[C@H](C[C@@H](O)[C@@H]5[C@@H]([C@]6(C)CC[C@H](C(C)(C)O)O6)CC[C@]54C)[C@@]4(C)CC[C@H](O)C(C)(C)[C@H]34)O[C@H](CO)[C@@H](O)[C@@H]2O)[C@H](O)[C@H](O)[C@H]1O` [PCM-0216458], under setting [1], the inhibition at 10 µM is 1.5%.
Regarding `CC[C@H](C)C[C@H](C)CCCCCCCCC(=O)N[C@H]1C[C@@H](O)[C@@H](O)NC(=O)[C@@H]2[C@@H](O)CCN2C(=O)[C@H]([C@H](O)CC(N)=O)NC(=O)[C@H]([C@H](O)[C@@H](O)c2ccc(O)cc2)NC(=O)[C@@H]2C[C@@H](O)CN2C(=O)[C@H]([C@@H](C)O)NC1=O` [PCM-0216459] ({Tetradecanoyl(10R,12S-Me2)}-[Orn(4R-OH,5R-OH)]T[Hyp][hTyr(3S-OH,4S-OH)][Gln(3R-OH)][Pro(3S-OH)]; lactam 1-C), the inhibition at 10 µM under setting [1] is -42.5%.
The same measure, in the same setting: under `CC(C)=CC(O)C/C(C)=C/COc1c2ccoc2cc2oc(=O)ccc12` (centres unmarked) [PCM-0216460] stands -45.6%; under `COc1cc(O)c2c(=O)cc(-c3ccc(O)c(O)c3)oc2c1` [PCM-0216461], 61%; under `C[N+]12CCc3cc4c(cc3C1(O)Cc1ccc3c(c1C2)OCO3)OCO4` (centres unmarked) [PCM-0216462], -18.5%.
`CC(C)=CCC[C@](C)(O[C@@H]1O[C@H](CO[C@@H]2O[C@H](CO)[C@@H](O)[C@H](O)[C@H]2O)[C@@H](O)[C@H](O)[C@H]1O)[C@H]1CC[C@]2(C)[C@@H]1[C@H](O)C[C@@H]1[C@@]3(C)CC[C@H](O[C@@H]4O[C@H](CO)[C@@H](O)[C@H](O)[C@H]4O)C(C)(C)[C@@H]3CC[C@]12C` [PCM-0216463]: the inhibition at 10 µM under setting [1] was 4.6%.
Take `CC(C)=CCC[C@](C)(O[C@@H]1O[C@H](CO[C@@H]2OC[C@@H](O)[C@H](O)[C@H]2O)[C@@H](O)[C@H](O)[C@H]1O)[C@H]1CC[C@]2(C)[C@@H]1[C@H](O)C[C@@H]1[C@@]3(C)CC[C@H](O[C@@H]4O[C@H](CO)[C@@H](O)[C@H](O)[C@H]4O[C@@H]4O[C@H](CO)[C@@H](O)[C@H](O)[C@H]4O)C(C)(C)[C@@H]3CC[C@]12C` [PCM-0216464]: under setting [1], the inhibition at 10 µM amounted to 4.6%.
The same measure, in the same setting: under `CCCCCCCCCCCCCC(=O)OCC(COC(=O)CCCCCCCCCCCCC)OC(=O)CCCCCCCCCCCCC` [PCM-0216465] stands -18.7%; under `C=C(CCC=C(C)C)[C@H]1CC[C@]2(C)[C@@H]1[C@H](O)C[C@@H]1[C@@]3(C)CC[C@H](O[C@@H]4O[C@H](CO)[C@@H](O)[C@H](O)[C@H]4O[C@@H]4O[C@H](CO)[C@@H](O)[C@H](O)[C@H]4O)C(C)(C)[C@@H]3CC[C@]12C` [PCM-0216466], 6.2%.
For `C[C@@H]1O[C@@H](OC[C@H]2O[C@@H](Oc3cc(O)c4c(c3)O[C@H](c3ccc(O)c(O)c3)CC4=O)[C@H](O)[C@@H](O)[C@@H]2O)[C@H](O)[C@H](O)[C@H]1O` [PCM-0216467], the inhibition at 10 µM under setting [1] was found to be 10%.
On to `Nc1nc(N)nc(N)n1` [PCM-0216468], for which the inhibition at 10 µM under setting [1] came out at 13.9%.
On to `CC(C)=C[C@H]1C[C@](C)(O)[C@@H]2[C@H]3CC[C@@H]4[C@@]5(C)CC[C@H](O[C@@H]6OC[C@H](O)[C@H](O[C@@H]7O[C@H](CO[C@@H]8O[C@H](CO)[C@@H](O)[C@H](O)[C@H]8O)[C@@H](O)[C@H](O)[C@H]7O[C@@H]7OC[C@@H](O)[C@H](O)[C@H]7O)[C@H]6O[C@@H]6O[C@@H](C)[C@H](O)[C@@H](O)[C@H]6O)C(C)(C)[C@@H]5CC[C@@]4(C)[C@@]34CO[C@@]2(C4)O1` [PCM-0216469], for which the inhibition at 10 µM under setting [1] turned out to be 10%.
The same measure, in the same setting: as for `CC(C)=C[C@H]1C[C@](C)(O)[C@@H]2[C@H]3CC[C@@H]4[C@@]5(C)CC[C@H](O[C@@H]6OC[C@H](O)[C@H](O[C@@H]7O[C@H](CO)[C@@H](O)[C@H](O)[C@H]7O[C@@H]7OC[C@@H](O)[C@H](O)[C@H]7O)[C@H]6O[C@@H]6O[C@@H](C)[C@H](O)[C@@H](O)[C@H]6O)C(C)(C)[C@@H]5CC[C@@]4(C)[C@@]34CO[C@@]2(C4)O1` [PCM-0216470], the figure is 10%.
Same read-out and setting: as for `COc1cc([C@H]2OC[C@H]3[C@@H]2CO[C@@H]3c2ccc(O[C@@H]3O[C@H](CO)[C@@H](O)[C@H](O)[C@H]3O)c(OC)c2)ccc1O[C@@H]1O[C@H](CO)[C@@H](O)[C@H](O)[C@H]1O` [PCM-0216471], the figure is -6.9%.
Still for that read-out and setting: under `COC(=O)[C@@]1(C)CC[C@]2(C(=O)O)CC[C@]3(C)C(=CC[C@@H]4[C@@]5(C)C[C@H](O)[C@H](O[C@@H]6OC[C@@H](O[C@@H]7O[C@H](CO)[C@@H](O)[C@H](O)[C@H]7O)[C@H](O)[C@H]6O)[C@@](C)(CO)[C@@H]5CC[C@]43C)[C@@H]2C1` [PCM-0216472] stands 2.3%; under `COc1cc(O)c2c(=O)c(O[C@@H]3O[C@H](CO)[C@@H](O)[C@H](O)[C@H]3O)c(-c3ccc(O[C@@H]4O[C@H](CO)[C@@H](O)[C@H](O)[C@H]4O)cc3)oc2c1` [PCM-0216473], 7.7%.
As to `COC(=O)[C@@]1(C)CC[C@]2(C(=O)O)CC[C@]3(C)C(=CC[C@@H]4[C@@]5(C)C[C@H](O)[C@H](O)[C@@](C)(CO)[C@@H]5CC[C@]43C)[C@@H]2C1` [PCM-0216474], the inhibition at 10 µM under setting [1] was -0.8%.
Turning to `CC1=C[C@H]2Cc3[nH]c(=O)ccc3[C@]3(C1)NCCC[C@H]23` [PCM-0216475], the inhibition at 10 µM under setting [1] was -10%.
Take `c1cc2c(c3c1CC1c4cc5c(cc4CCN1C3)OCO5)OCO2` (centres unmarked) [PCM-0216476]: under setting [1], the inhibition at 10 µM was -13.9%.
Still for that read-out and setting: under `COc1cc(/C=C/C=O)ccc1O` [PCM-0216477] stands 1.5%.
Take `CCN1C[C@]2(COC)CC[C@H](OC)[C@]34C1[C@H](C[C@H]23)[C@@]1(O)C[C@H](OC)[C@H]2C[C@@H]4[C@@H]1[C@H]2O` [PCM-0216478]: the inhibition at 10 µM (read-out: BTK inhibition (%)) is 10.8%.
As for `C=C1[C@@H]2CC[C@@H](C2)[C@]1(C)CC/C=C(\C)CO` [PCM-0216479], the inhibition at 10 µM under setting [1] turned out to be 0%.

What is called inhibition is the relative decrease from the control value, in per cent.
